Reference: patent publication US8557853B2, “Aryl fluoroethyl ureas acting as alpha 2 adrenergic agents” (Allergan, Inc., priority 2007, dated 2013)
Where two headings read alike, the source gives them in different places.

Assays:
Assay type in all cases: cell-based
alpha2B receptor = biological target: T1, alpha2B receptor (Homo sapiens, UniProt P18089); assay: RSAT (Receptor Selection and Amplification Technology) assay, alpha 2B; details: for Alpha 2B IA: intrinsic activity: ratio of maximal effect of drug to maximal effect of standard full agonist brimonidine (UK14304)
T1 construct: expressed in transfected cells; host or cells: NIH-3T3 cells
T1 sequence (P18089 1-450): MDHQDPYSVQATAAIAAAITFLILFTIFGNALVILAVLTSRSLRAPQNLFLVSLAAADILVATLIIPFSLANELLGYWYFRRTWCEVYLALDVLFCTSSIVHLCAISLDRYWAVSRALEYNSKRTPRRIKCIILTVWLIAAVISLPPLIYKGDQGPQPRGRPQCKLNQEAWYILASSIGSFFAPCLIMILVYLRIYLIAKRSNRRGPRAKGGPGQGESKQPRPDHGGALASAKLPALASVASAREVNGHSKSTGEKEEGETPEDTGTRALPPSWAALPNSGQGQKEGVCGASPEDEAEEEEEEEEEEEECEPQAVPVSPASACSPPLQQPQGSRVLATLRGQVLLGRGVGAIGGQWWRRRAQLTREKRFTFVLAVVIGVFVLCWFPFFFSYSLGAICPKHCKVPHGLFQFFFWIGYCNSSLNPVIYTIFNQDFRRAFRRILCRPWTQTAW
Description: (§1) The RSAT assay measures a receptor-mediated loss of contact inhibition that results in selective proliferation of receptor-containing cells in a mixed population of confluent cells. The increase in cell number is assessed with an appropriate transfected marker gene such as ∃-galactosidase, the activity of which can be easily measured in a 96-well format. Receptors that activate the G protein, Gq, elicit this response. Alpha 2 receptors, which normally couple to Gi, activate the RSAT response when coexpressed with a hybrid Gq protein that has a Gi receptor recognition domain, called Gq/i5.
(§2) NIH-3T3 cells are plated at a density of 2×10^6 cells in 15 cm dishes and maintained in Dulbecco's modified Eagle's medium supplemented with 10% calf serum. One day later, cells are cotransfected by calcium phosphate precipitation with mammalian expression plasmids encoding p-SV-β-galactosidase (5-10 μg), receptor (1-2 μg) and G protein (1-2 μg). 40 μg salmon sperm DNA may also be included in the transfection mixture. Fresh media is added on the following day and 1-2 days later, cells are harvested and frozen in 50 assay aliquots. Cells are thawed and 100 μl added to 100 μl aliquots of various concentrations of drugs in triplicate in 96-well dishes. Incubations continue 72-96 hr at 37° C. After washing with phosphate-buffered saline, ∃-galactosidase enzyme activity is determined by adding 200 μl of the chromogenic substrate (consisting of 3.5 mM o-nitrophenyl-β-D-galactopyranoside and 0.5% nonidet P-40 in phosphate buffered saline), incubating overnight at 30° C. and measuring optical density at 420 nm. The absorbance is a measure of enzyme activity, which depends on cell number and reflects a receptor-mediated cell proliferation. The efficacy or intrinsic activity is calculated as a ratio of the maximal effect of the drug to the maximal effect of a standard full agonist for each receptor subtype. Brimonidine, also called UK14304, the chemical structure of which is shown below, is used as the standard agonist for the alpha2A, alpha2B and alpha2C receptors.

alpha2A receptor = biological target: T2, alpha2A receptor (Homo sapiens, UniProt P08913); assay: RSAT (Receptor Selection and Amplification Technology) assay, alpha 2A; details: for Alpha 2A EC50 / EC50: RSAT, transfected NIH-3T3 cells, "not active" = not active at concentrations less than 10 micromolar; for Alpha 2A IA: intrinsic activity: ratio of maximal effect of drug to maximal effect of standard full agonist brimonidine (UK14304)
T2 construct: expressed in transfected cells; host or cells: NIH-3T3 cells
T2 sequence (P08913 1-465): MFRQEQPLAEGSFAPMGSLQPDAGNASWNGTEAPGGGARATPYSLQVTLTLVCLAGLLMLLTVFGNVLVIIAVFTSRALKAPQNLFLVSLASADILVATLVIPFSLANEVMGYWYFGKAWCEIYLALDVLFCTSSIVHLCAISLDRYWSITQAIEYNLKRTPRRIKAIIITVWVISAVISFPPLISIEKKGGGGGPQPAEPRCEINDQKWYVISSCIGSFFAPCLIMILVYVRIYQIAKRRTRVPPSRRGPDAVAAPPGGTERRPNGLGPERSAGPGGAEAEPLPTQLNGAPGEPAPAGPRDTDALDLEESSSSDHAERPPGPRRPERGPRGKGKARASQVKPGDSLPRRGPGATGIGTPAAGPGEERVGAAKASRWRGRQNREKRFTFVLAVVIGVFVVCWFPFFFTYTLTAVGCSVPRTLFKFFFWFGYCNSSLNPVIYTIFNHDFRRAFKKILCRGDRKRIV
From the text: (§3) The aryl fluoroethyl ureas of the invention are agonists of alpha2 adrenergic receptors. […] Al, 1995, Pharmacol. Toxicol. 76, pp. 308-311 (incorporated herein by reference) and is also described below. Another reference pertinent to this assay is Conklin et al. (1993) Nature 363:274-6, Receptor Selection and Amplification Technology (RSAT) assay, also incorporated herein by reference.
as §1, §2
(§4) The results of the RSAT assay with several exemplary compounds of the invention are disclosed in Table 1 below together with the chemical structures of these compounds. “Not active” means the compounds are not active at concentrations less than 10 micromolar.

alpha2C receptor = biological target: T3, alpha2C receptor (Homo sapiens, UniProt P18825); assay: RSAT (Receptor Selection and Amplification Technology) assay, alpha 2C; details: for Alpha 2C EC50 / EC50: RSAT, transfected NIH-3T3 cells, "not active" = not active at concentrations less than 10 micromolar; for Alpha 2C IA: intrinsic activity: ratio of maximal effect of drug to maximal effect of standard full agonist brimonidine (UK14304)
T3 construct: expressed in transfected cells; host or cells: NIH-3T3 cells
T3 sequence (P18825 1-462): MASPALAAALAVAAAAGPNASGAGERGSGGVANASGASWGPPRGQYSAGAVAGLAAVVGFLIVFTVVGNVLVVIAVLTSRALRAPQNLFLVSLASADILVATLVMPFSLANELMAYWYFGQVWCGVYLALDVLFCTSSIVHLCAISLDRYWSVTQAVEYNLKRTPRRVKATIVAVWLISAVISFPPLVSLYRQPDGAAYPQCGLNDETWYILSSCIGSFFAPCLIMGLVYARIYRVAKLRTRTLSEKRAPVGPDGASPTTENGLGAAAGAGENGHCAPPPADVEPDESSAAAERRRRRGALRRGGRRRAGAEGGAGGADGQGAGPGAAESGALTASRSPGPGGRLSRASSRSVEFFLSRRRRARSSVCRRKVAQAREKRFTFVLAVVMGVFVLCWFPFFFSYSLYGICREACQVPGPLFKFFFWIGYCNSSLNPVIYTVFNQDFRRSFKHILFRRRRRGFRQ
From the text: as §3, §1, §2, §4

[1] = RSAT, transfected NIH-3T3 cells, "not active" = not active at concentrations less than 10 micromolar, read-out: Alpha 2B EC50

Structure (SMILES)	EC50 (alpha2B receptor; [1]) [nM]	Alpha 2B IA (alpha2B receptor)	Alpha 2A EC50 (alpha2A receptor)	Alpha 2C EC50 (alpha2C receptor)	EC50 (alpha2A receptor) [nM]	Alpha 2A IA (alpha2A receptor)	EC50 (alpha2C receptor) [nM]	Alpha 2C IA (alpha2C receptor)	EC50 (alpha2B receptor) [nM]
O=C(NCCF)NC(c1ccccc1)c1ccccc1 [Compound 32, 1-benzhydryl-3-(2-fluoro-ethyl)-urea]	325	0.58	not active	not active	–	–	–	–	–
C[C@H](NC(=O)NCCF)c1ccccc1 [Compound 33, (−)-(S)-1-(2-Fluoro-ethyl)-3-(1-phenyl-ethyl)-urea]	66	0.99	–	–	302	0.63	513	0.64	–
Cc1cccc(C(NC(=O)NCCF)c2ccc(C)s2)c1 (centres unmarked) [Compound 34, 1-(2-fluoro-ethyl)-3-[(5-methyl-thiophen-2-yl)-m-tolyl-methyl]-urea]	829	0.41	not active	not active	–	–	–	–	–
O=C(NCCF)NCc1ccccn1 [Compound 35, 1-(2-fluoro-ethyl)-3-pyridin-2-ylmethyl-urea]	–	0.75	not active	–	–	–	3710	0.38	1990
Cc1cccc(CNC(=O)NCCF)n1 [Compound 36, 1-(2-fluoro-ethyl)-3-(6-methyl-pyridin-2-ylmethyl)-urea]	414	0.78	–	–	1760	0.62	1800	0.52	–
Cc1cccnc1CNC(=O)NCCF [Compound 37, 1-(2-fluoro-ethyl)-3-(3-methyl-pyridin-2-ylmethyl)-urea]	–	0.40	not active	not active	–	–	–	–	3540
O=C(NCCF)NCc1cccc(Br)n1 [Compound 38, 1-(6-bromo-pyridin-2-ylmethyl)-3-(2-fluoro-ethyl)-urea]	592	0.85	not active	–	–	–	2160	0.65	–
Cc1ccnc(CNC(=O)NCCF)c1 [Compound 39, 1-(2-Fluoro-ethyl)-3-(4-methyl-pyridin-2-ylmethyl)-urea]	343	0.77	–	–	2170	0.36	1560	0.61	–
Cc1ccc(CNC(=O)NCCF)o1 [Compound 40, 1-(2-fluoro-ethyl)-3-(5-methyl-furan-2-ylmethyl)-urea]	–	0.83	not active	–	–	–	2630	0.56	968
O=C(NCCF)NCc1ccc(O)cc1 [Compound 41, 1-(2-fluoro-ethyl)-3-(4-hydroxy-benzyl)-urea]	293	0.84	not active	–	–	–	800	0.69	–
O=C(NCCF)NCc1cccc(O)c1 [Compound 42, 1-(2-fluoro-ethyl)-3-(3-hydroxy-benzyl)-urea]	137	0.81	–	–	3520	0.33	1060	0.67	–
